Experiments:
PTGER2 (EP2) = PTGER2 (EP2) (Homo sapiens (Human), UniProt P43116); assay: hEP2 b-arrestin assay (PathHunter HEK 293 PTGER2 b-arrestin cells); type: cell-based
Procedure, shortened: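 Readout is β-galactosidase complementation luminescence, expressed as percent of DMSO control (duplicates). PathHunter HEK293 EP2/β-arrestin 2 cells, grown 24 h, received compound for 15 min at 37 °C before a 120 min challenge with PGE2 at 5 μM final, followed by 1 h detection at room temperature.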

PTRGER4 (EP4) = PTRGER4 (EP4) (Homo sapiens (Human), UniProt P35408); assay: hEP4 b-arrestin assay (PathHunter HEK 293 PTGER4 b-arrestin cells); type: cell-based
Procedure, shortened: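 Antagonist mode: compound is given 15 min at 37 °C, then 20 nM (final) PGE2 for 120 min, in HEK293 cells stably expressing EP4 fused to ProLink and β-arrestin 2 fused to EA. Recruitment read as β-gal luminescence after 1 h reagent at room temperature, as percent of DMSO control.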

[1] = hEP2 b-arrestin assay (values without asterisk)
[2] = hEP4 b-arrestin assay (values without asterisk)
[3] = antagonistic activity on hEP2, mean where measured multiple times
[4] = antagonistic activity on hEP4, mean where measured multiple times

Sequence of PTRGER4 (EP4) (P35408 whole entry, looked up, the tested form may be a part): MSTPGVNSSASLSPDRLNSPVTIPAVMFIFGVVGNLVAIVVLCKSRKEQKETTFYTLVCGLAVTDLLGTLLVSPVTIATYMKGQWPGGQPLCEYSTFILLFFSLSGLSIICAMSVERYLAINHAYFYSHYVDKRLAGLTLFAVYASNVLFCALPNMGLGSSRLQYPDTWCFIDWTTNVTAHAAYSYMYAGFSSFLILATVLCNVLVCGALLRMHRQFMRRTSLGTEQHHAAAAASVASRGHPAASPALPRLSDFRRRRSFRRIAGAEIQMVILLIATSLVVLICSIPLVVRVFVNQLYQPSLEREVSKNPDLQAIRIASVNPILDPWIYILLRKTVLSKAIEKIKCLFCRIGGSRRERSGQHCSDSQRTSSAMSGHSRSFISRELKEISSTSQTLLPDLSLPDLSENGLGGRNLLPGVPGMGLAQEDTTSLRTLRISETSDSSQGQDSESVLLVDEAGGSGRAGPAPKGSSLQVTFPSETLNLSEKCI
Sequence of PTGER2 (EP2) (P43116 whole entry): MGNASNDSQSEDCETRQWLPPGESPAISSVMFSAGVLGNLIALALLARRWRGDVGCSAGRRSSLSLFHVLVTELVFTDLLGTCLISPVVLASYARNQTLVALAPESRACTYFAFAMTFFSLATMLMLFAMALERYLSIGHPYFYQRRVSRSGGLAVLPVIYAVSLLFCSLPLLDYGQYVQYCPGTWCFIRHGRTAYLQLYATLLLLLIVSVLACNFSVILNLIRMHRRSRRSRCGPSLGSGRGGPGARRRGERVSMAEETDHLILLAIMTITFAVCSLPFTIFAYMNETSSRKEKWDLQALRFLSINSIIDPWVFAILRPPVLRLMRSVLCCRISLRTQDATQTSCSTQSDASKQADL

SMILES	IC50 (PTGER2 (EP2); [1]) [nM]	IC50 (PTRGER4 (EP4); [2]) [nM]	IC50 (PTGER2 (EP2); [3]) [nM]	IC50 (PTRGER4 (EP4); [4]) [nM]
CCc1cc(-c2cc(NCCn3c(C)cc4c(C)cc(F)cc43)ncn2)ccc1C(=O)O [compound 219]			41	454
CCSc1cc(-c2cc(NCCn3c(C)cc4c(C)ccc(Cl)c43)ncn2)ccc1C(=O)O [compound 146, 4-{6-[2-(7-Chloro-2,4-dimethyl-indol-1-yl)-ethylamino]-pyrimidin-4-yl}-2-ethylsulfanyl-benzoic acid]			8	334
CCCOc1cc(-c2cc(NCCn3c(C#N)cc4c(OC)ccc(F)c43)ncn2)cc(Cl)c1C(=O)O [Example 907, 2-Chloro-4-{6-[2-(2-cyano-7-fluoro-4-methoxy-indol-1-yl)-ethylamino]-pyrimidin-4-yl}-6-propoxy-benzoic acid]	24	12		
Cc1cc(F)cc2c1cc(C)n2CCNc1cc(-c2ccc(C(=O)O)c(C3CC3)c2)ncn1 [compound 354]			32	772
COc1ccc(F)c2c1cc(C#N)n2CCNc1cc(-c2ccc(-c3noc(=O)[nH]3)cc2)ncn1 [Example 825]	14	8		
CCOc1cc(-c2cc(NCCn3c(C#N)cc4c(OC)ccc(F)c43)ncn2)sc1CC(=O)O [Example 854, (5-{6-[2-(2-Cyano-7-fluoro-4-methoxy-indol-1-yl)-ethylamino]-pyrimidin-4-yl}-3-ethoxy-thiophen-2-yl)-acetic acid]	232	193		
CC(C)Cc1cc(-c2cc(NCCn3c(C#N)cc4ccccc43)ncn2)ccc1C(=O)O [compound 165, 4-{6-[2-(2-Cyano-indol-1-yl)-ethylamino]-pyrimidin-4-yl}-2-isobutyl-benzoic acid]			19	230
Cc1cc(F)cc2c1cc(C)n2CCNc1cc(-c2ccc3[nH]c(C(F)(F)F)nc3c2)ncn1 [compound 297]			539	814
CCc1cc(-c2cc(NCCn3c(C)cc4cc(C)cc(F)c43)ncn2)sc1C(=O)O [compound 241]			32	128
CCOc1cc(-c2cc(NCCn3c(C#N)cc4c(OC)ccc(F)c43)ncn2)ccc1-c1nnn[nH]1 [Example 803, 1-(2-{6-[3-Ethoxy-4-(1H-tetrazol-5-yl)-phenyl]-pyrimidin-4-ylamino}-ethyl)-7-fluoro-4-methoxy-1H-indole-2-carbonitrile]	10	4		
CCc1cc(-c2cc(NCCn3c(C)cc4cc(F)cc(F)c43)ncn2)ccc1C(=O)O [compound 122, 4-{6-[2-(5,7-Difluoro-2-methyl-indol-1-yl)-ethylamino]-pyrimidin-4-yl}-2-ethyl-benzoic acid]			9	974
COc1ccc(F)c2c1c(F)c(C#N)n2CCNc1cc(-c2cc(C(F)(F)F)c(C(=O)O)s2)ncn1 [Example 1059, 5-{6-[2-(2-Cyano-3,7-difluoro-4-methoxy-indol-1-yl)-ethylamino]-pyrimidin-4-yl}-3-trifluoromethyl-thiophene-2-carboxylic acid]	54	3		
COc1cc(F)cc2c1cc(C)n2CCNc1cc(-c2ccc(-c3c[nH]cn3)cc2)ncn1 [compound 188, [2-(6-Fluoro-4-methoxy-2-methyl-indol-1-yl)-ethyl]-{6-[4-(1H-imidazol-4-yl)-phenyl]-pyrimidin-4-yl}-amine]			17	43
CCOc1cc(-c2cc(NCCn3c(C#N)cc4c(Cl)cccc43)ncn2)ccc1NCC(=O)O [Example 915, (4-{6-[2-(4-Chloro-2-cyano-indol-1-yl)-ethylamino]-pyrimidin-4-yl}-2-ethoxy-phenylamino)-acetic acid]	12	27		
N#Cc1cc2c(Cl)cccc2n1CCNc1cc(-c2cc(C(F)(F)F)c(C(=O)O)s2)ncn1 [Example 911, 5-{6-[2-(4-Chloro-2-cyano-indol-1-yl)-ethylamino]-pyrimidin-4-yl}-3-trifluoromethyl-thiophene-2-carboxylic acid]	7	27		
CCOc1cc(-c2cc(NCCn3c(C)cc4ccccc43)ncn2)sc1C(=O)O [compound 50]			1	161
CCNc1csc(-c2cc(NCCn3c(C)cc4c(OC)cc(F)cc43)ncn2)c1 [Example 1070, [6-(4-Ethylamino-thiophen-2-yl)-pyrimidin-4-yl]-[2-(6-fluoro-4-methoxy-2-methyl-indol-1-yl)-ethyl]-amine]	10	18		
COC(=O)c1ccc2cc(-c3cc(NCCn4c(C#N)cc5c(OC)ccc(F)c54)ncn3)[nH]c2c1 [Example 959, 2-{6-[2-(2-Cyano-7-fluoro-4-methoxy-indol-1-yl)-ethylamino]-pyrimidin-4-yl}-1H-indole-6-carboxylic acid methyl ester]	3	137		

Next, values leading:

IC50 (PTGER2 (EP2); [1]) [nM]	IC50 (PTRGER4 (EP4); [2]) [nM]	IC50 (PTGER2 (EP2); [3]) [nM]	IC50 (PTRGER4 (EP4); [4]) [nM]	SMILES
35	309			CCOc1cc(-c2cc(NCCn3c(C)cc4c(OC)ccc(F)c43)ncn2)sc1CC(=O)O [Example 847, (3-Ethoxy-5-{6-[2-(7-fluoro-4-methoxy-2-methyl-indol-1-yl)-ethylamino]-pyrimidin-4-yl}-thiophen-2-yl)-acetic acid]
		5	219	COc1cc(-c2cc(NCCn3c(C)cc4c(OC)cccc43)ncn2)ccc1CO [compound 36, (2-Methoxy-4-{6-[2-(4-methoxy-2-methyl-indol-1-yl)-ethylamino]-pyrimidin-4-yl}-phenyl)-methanol]
5	25			COc1ccc(F)c2c1cc(C)n2CCNc1cc(-c2cc(OCC(F)(F)F)c(C(=O)O)s2)ncn1 [Example 832, 5-{6-[2-(7-Fluoro-4-methoxy-2-methyl-indol-1-yl)-ethylamino]-pyrimidin-4-yl}-3-(2,2,2-trifluoro-ethoxy)-thiophene-2-carboxylic acid]
		48	622	COc1cc(-c2cc(NCCn3c(C)cc4c(C)ccc(F)c43)ncn2)ccc1C(=O)O [compound 129, 4-{6-[2-(7-Fluoro-2,4-dimethyl-indol-1-yl)-ethylamino]-pyrimidin-4-yl}-2-methoxy-benzoic acid]
		4	27	COc1ccc(F)c2c1cc(C)n2CCNc1cc(-c2cc(Cl)c(C(=O)O)s2)ncn1 [compound 114]
		5	76	CCCc1cc(-c2cc(NCCn3c(C)cc4c(OC)ccc(F)c43)ncn2)ccc1C(=O)O [compound 348, 4-{6-[2-(7-Fluoro-4-methoxy-2-methyl-indol-1-yl)-ethylamino]-pyrimidin-4-yl}-2-propyl-benzoic acid]
7	14			CCOc1cc(-c2cc(NCCn3c(C)cc4c(OC)ccc(F)c43)ncn2)sc1NC(=O)CC [Example 1073, N-(3-Ethoxy-5-{6-[2-(7-fluoro-4-methoxy-2-methyl-indol-1-yl)-ethylamino]-pyrimidin-4-yl}-thiophen-2-yl)-propionamide]
		19	106	Cc1ccc(F)c2c1cc(C)n2CCNc1cc(-c2ccc(-c3cc(N)no3)cc2)ncn1 [compound 189, {6-[4-(3-Amino-isoxazol-5-yl)-phenyl]-pyrimidin-4-yl}-[2-(7-fluoro-2,4-dimethyl-indol-1-yl)-ethyl]-amine]
20	31			CCOc1cc(C(=O)O)cc(-c2cc(NCCn3c(C#N)cc4c(OC)ccc(F)c43)ncn2)c1 [Example 1002, 3-{6-[2-(2-Cyano-7-fluoro-4-methoxy-indol-1-yl)-ethylamino]-pyrimidin-4-yl}-5-ethoxy-benzoic acid]
77	18			CCOc1cc(-c2cc(NCCn3c(C#N)cc4c(OC)ccc(F)c43)ncn2)ccc1CC(=O)O [Example 873, (4-{6-[2-(2-Cyano-7-fluoro-4-methoxy-indol-1-yl)-ethylamino]-pyrimidin-4-yl}-2-ethoxy-phenyl)-acetic acid]
		59	167	Cc1ccc(F)c2c1cc(C)n2CCNc1cc(-c2ccc3c(c2)CN(C)C3=O)ncn1 [compound 95]
		75	372	CNS(=O)(=O)c1ccc(-c2cc(NCCn3c(C)cc4c(OC)ccc(F)c43)ncn2)cc1C [compound 360]
		5	894	Cc1cc2c(F)ccc(F)c2n1CCNc1cc(-c2ccc(C(=O)O)c(C3CC3)c2)ncn1 [compound 173, 2-Cyclopropyl-4-{6-[2-(4,7-difluoro-2-methyl-indol-1-yl)-ethylamino]-pyrimidin-4-yl}-benzoic acid]
4	19			COc1ccc(F)c2c1cc(C)n2CCNc1cc(-c2ccc(O)c(OC(F)(F)F)c2)ncn1 [Example 874, 4-{6-[2-(7-Fluoro-4-methoxy-2-methyl-indol-1-yl)-ethylamino]-pyrimidin-4-yl}-2-trifluoromethoxy-phenol]
88	67			CCNc1csc(-c2cc(NCCn3c(C)cc4c(OC)ccc(F)c43)ncn2)c1 [Example 1067, [6-(4-Ethylamino-thiophen-2-yl)-pyrimidin-4-yl]-[2-(7-fluoro-4-methoxy-2-methyl-indol-1-yl)-ethyl]-amine]
		10	81	COc1cc(F)c(F)c2c1cc(C)n2CCNc1cc(-c2ccc(-c3ncno3)cc2)ncn1 [compound 299, [2-(6,7-Difluoro-4-methoxy-2-methyl-indol-1-yl)-ethyl]-[6-(4-[1,2,4]oxadiazol-5-yl-phenyl)-pyrimidin-4-yl]-amine]
		36	71	Cc1cc(F)c(F)c2c1cc(C)n2CCNc1cc(-c2ccc(-c3c[nH]cn3)cc2)ncn1 [compound 176, [2-(6,7-Difluoro-2,4-dimethyl-indol-1-yl)-ethyl]-{6-[4-(1H-imidazol-4-yl)-phenyl]-pyrimidin-4-yl}-amine]

Source: patent publication US12011444B2, “N-substituted indole derivatives as PGE2 receptor modulators” (Idorsia Pharmaceuticals Ltd, priority 2015, dated 2024)
